Read-outs that look alike come from different tables or passages of the source.
Columns and labels:
[1] = system: MCF7 cells; experiment: viability and cell cycle of MCF7 cells (Alamar Blue, FACS); conditions: Alamar Blue
[2] = system: DUBs; experiment: decomposition of high molecular weight ubiquitinated proteins (HMW-Ub) in lysates of HEK 293T cells expressing HA-Ub; type: biochemical, human; conditions: for DUB inhibitory activity, SAR in words: relative to C4 or parent analog; for stabilization of the HMW-Ub pool: HEK 293T HA-Ub lysates, 37° C.
Description: FIG. 30 depicts data showing that diphenylcarbonates inhibit the decomposition of high molecular weight ubiquitinated proteins (HMW-Ub). Lysates were prepared from HEK 293T cells expressing HA-ubiquitin. Samples were incubated at 37° C. and reactions were quenched by the addition of reducing Laemmli buffer. HMW-Ub was assessed by SDS-PAGE and immunoblotting with anti-HA antibody. A. Representative immunoblots measuring the decomposition of HMW-Ub in lysates treated with either the DMSO vehicle, G5 (10 μM) or C4 (500 μM). B. Plot of the decomposition of HMW-Ub in lysates treated with DMSO and C4 (500 μM) (N=2; error bars denote range). C. Inhibition of HMW-Ub decomposition by diphenylcarbonates. Lysates were treated with diphenylcarbonates (50 μM). “-” denotes no treatment; D, 1% DMSO vehicle; IU1, an USP14-specific inhibitor; Bort, bortezomib, a proteasome inhibitor. D. Representative decomposition of HMW-Ub after 2 h incubation in the presence of varying concentrations of C4. See also FIG. 36. E. Quantitation of D. The values of EC50 reported in FIG. 29B are the average and S.E.M. of at least 3 independent experiments. See also FIG. 37 and FIG. 38.
Cells overexpressing HA-ubiquitin were prepared as above. Pellets were typically stored at −80° C. until required, at which time they were thawed on ice. Cell lysis was performed in lysis buffer using a Dounce homogenizer (10 strokes, with grinding, on ice: typical yield approx. 2-5 mg protein per transfected T75 flask for HEK 293T cells; 1-3 mg protein from a T75 flask for Cos-1). Crude lysate was centrifuged at 17000 g for 10 min at 4° C., after which time the concentration of the lysate was normalized to 1 mg/mL. The lysate was aliquoted into PCR strip tubes (typical volumes 75-50 μL) and compound in DMSO was added to this to give a final concentration of DMSO of 1%. Tubes were briefly centrifuged, overlaid with Chill-out wax (50 μL) and placed in a PCR machine at 37° C. with heated lid set to 37° C. Aliquots (9 μL) were removed at the stated times and immediately quenched in (2× final concentration) reducing (dithiothreitol) loading buffer and frozen (−19° C.) till required. Western blot analysis was carried out using standard methods. Samples were resolved by SDS-PAGE, transferred to PVDF [(0.45 μm) (Towbin buffer, tank apparatus, 90 V 1 hour, then overnight at 30 V, 4° C.)] then blocked in 15% milk in TBS-T HS (100 mM Tris HCl, pH 7.6, 500 mM NaCl, 0.5% […]) for at least 2 hours at RT. Afterward, membrane was washed in TBS-T HS then probed with anti HA-HRP (1:18000) for 1.33 hours at RT. Membrane was washed 3 times in TBS-T HS (15 mins) then once in TBS (15 mins) and exposed to ECL II and visualized using blue biofilm. […] When required, membranes were stripped in 100 mM glycine pH 4, 500 mM NaCl, 1% SDS, 5 mM BME, at 55° C. for 19 mins, then analyzed.
Lysates were prepared from HEK 293T cells expressing N-terminally HA-tagged ubiquitin (HA-Ub) to facilitate the observation of ubiquitinated proteins. In the absence of a DUB inhibitor, the HMW-Ub pool decomposed with a half-life of 34 min (FIG. 30A,B). […] Similar results were obtained in lysates prepared from Cos-1 cells expressing HA-Ub.

[3] = system: HEK 293T cells; experiment: accumulation of K48- and K63-linked Ub species in HEK 293T cells; type: cell-based, human; conditions: 50 μM, 2 h
Description: FIG. 32 depicts data showing that diphenyl carbonates inhibit DUBs in HEK 293T cells. A. Viability of HEK 293T cells assessed by the propidium iodide exclusion method: diphenyl carbonate (100 μM), bortezomib (V, 20 μM) and G5 (2 μM). N≧3, mean+/−s.d. B. HEK 293T cells were treated with the stated compounds (50 μM) for 2 h and then assayed for the accumulation of K48-linked Ub species. C. As in A, but K63-linked Ub was assayed. D. HEK 293T cells were treated with C14, C15, C17, C18 (100 μM) or DMSO for 2 hours, then harvested, lysed and treated with HA-Ub-VS. After 30 min, lysates were analyzed by SDS-PAGE and probed for HA, tubulin and actin. An intervening lane was removed for clarity. E. HEK 293T cells expressing Ub-G76V-GFP were treated with diphenyl carbonates (100 μM), bortezomib (20 μM) and G5 (2 μM). […] N>3, Mean+/−s.d. See also FIG. 39. […]

[4] = system: USP9x, USP19, USP7/8, USP28/15; experiment: HA-Ub-VS activity profiling in cell lysates, USPs; type: biochemical, human
Description: (§1) HA-ubiquitin vinylsulfone (HA-Ub-VS) irreversibly labels DUBs by modifying the catalytic cysteine residue Inhibition of the DUB prevents HA-Ub-VS labeling and the band is. […] The interaction with UCHL1/3 is reversible.
(§2) Lysate labeling assay on untransfected cells (1.5 mg/mL) was run with the stated concentration of inhibitor (or 1% DMSO control) for between 19-60 mins. After this time HA-Ub-VS (1.5-0.7 μM) was added and incubated for 19 mins. After this time reaction mixture (9 μL) was removed and quenched in 2× (final concentration) reducing loading buffer. For recovery experiments, a lysate of 6 mg/mL was treated with saturating compound C14 (250 μM) and incubated for 40 mins. Afterward, the lysate was diluted to 0.6 mg/mL (final concentration of inhibitor 25 μM) in lysis buffer (final volume 100 μL), then HA-Ub-VS was added. Aliquots (15 μL) were removed at the stated time (5-119 mins) and immediately quenched in 2× (final concentration) reducing loading buffer. For all HA-Ub-VS experiments samples in loading buffer were heated only to 37° C. prior to loading on a gel. This assay is highly susceptible to concentration of lysate and HA-Ub-VS. Cell experiments were carried out as above with some modifications. For Cos-1 and MCF-7 cells, after trypsinization, media with compound was added to give a final concentration of compound equal to that used in the assay. Cell pellets were lysed on an ice/salt bath with a temperature of −5° C. and lysate was centrifuged for only 5 mins.
(§3) HA-Ub-VS is an irreversible inhibitor of DUBs that is widely used in activity profiling. If the DUB inhibitors react to form a thiocarbonylated enzyme as proposed (FIG. 29B), then HA-Ub-VS labeling will be blocked. Treatment of HEK 293T lysates with HA-Ub-VS produced the characteristic pattern of protein bands at 250, 150-100, 45, 38 and 36 kDa, generally ascribed to USP9x (292 kDa), USP19 (146 kDa), USP7/8 (128 and 127 kDa, respectively), USP28/15 (122 and 112 kDa, respectively), UCH-L5 (38 kDa), UCH-L3 (26 kDa) and UCH-L1 (25 kDa) as depicted in FIG. 31.
(§4) The effect of diphenylcarbonates on HA-Ub-VS labeling was assessed to investigate the selectivity of DUB inhibition. Lysates were preincubated with diphenyl carbonates (75 μM), then treated with HA-Ub-VS (FIG. 31A). […] These C17 and C22-sensitive DUBs are most likely USP9x, USP19, USP7/8 and UCHL5, based on molecular weight (FIGS. 31B and 38). The identity of USP7 was confirmed by immunoblotting (FIG. 38F). […] Similar behavior was observed on Cos-1 cell lysates (FIG. 38B).

[5] = system: UCH-L5, UCH-L3, UCH-L1; experiment: HA-Ub-VS activity profiling in cell lysates, UCH-Ls; type: biochemical, human
Description: as §1, §2, §3, §4

[6] = target: T1, USP9x (Homo sapiens, UniProt Q93008); experiment: HA-Ub-VS labeling in K562 cell lysates; type: biochemical; conditions: compound 40 minutes, then HA-Ub-VS (1.5 μM) 20 minutes
T1 construct: endogenous in cells; host or cells: K562 cell lysate
Description: HA-Ub-VS is commonly used to label DUBs in cell lysates. […] A. and B. K562 cell lysates were treated with compound for 40 minutes prior to activity labeling with HA-Ub-VS (1.5 μM) for 20 minutes. Samples were analyzed by SDS-PAGE and immunoblotting with anti-HA antibody. C. […] Values were derived by fitting to the in Prism.

[7] = system: MCF7 cells
Description: MCF7 cells were dosed every 2 hours with the indicated concentration of C15. After 6 hours, cells were lysed by freeze thaw and then sonicated in 0.5% SDS. […] MCF7 cells were treated under the stated conditions then analyzed for cell cycle. […] G. Cells treated with C17 (25 μM), dosed every 24 hours. H. Cells treated with C17 (50 μM), dosed every 24 hours. […] These cells were left for 72 h (single dose) after which time the total number of viable cells was analyzed using Alamar Blue®. All data are n≧4 showing mean+/−s.e.m. K. MCF7 cells were plated with C17 for 24 hours after which time the total number of viable cells was measured by Alamar Blue®.
All cells were grown at 37° C. in a 5% CO2 humidified atmosphere in DMEM supplemented with 10% heat inactivated FBS, 1× glutamax, and 1× penicillin/streptomycin. […] Proliferation assays were conducted by plating cells at 5% confluence in 96 well plates together with compound or 0.1% DMSO. Cells were allowed to grow for 72 hours (a 24 h dosing regimen was used for carbonate compounds) and then Alamar Blue® was added and number of cells was measured by fluorescence on a microplate reader.

[8] = system: DUBs; experiment: A-ring SAR: total ubiquitin pool in HEK293T lysates overexpressing ubiquitin-HA, western blot; type: biochemical, human; conditions: 1.5 h, compounds numbered as in FIG. 3
Description: HEK293T lysates overexpressing ubiquiting-HA were treated with the stated compound for 1.5 h and the total ubiquitin pool was analyzed by western blot (HA). […] Similar data were obtained for Cos-1 lysates.

[9] = HEK 293T lysates, 75 μM, 30 minutes preincubation

T1 sequence (Q93008 whole entry): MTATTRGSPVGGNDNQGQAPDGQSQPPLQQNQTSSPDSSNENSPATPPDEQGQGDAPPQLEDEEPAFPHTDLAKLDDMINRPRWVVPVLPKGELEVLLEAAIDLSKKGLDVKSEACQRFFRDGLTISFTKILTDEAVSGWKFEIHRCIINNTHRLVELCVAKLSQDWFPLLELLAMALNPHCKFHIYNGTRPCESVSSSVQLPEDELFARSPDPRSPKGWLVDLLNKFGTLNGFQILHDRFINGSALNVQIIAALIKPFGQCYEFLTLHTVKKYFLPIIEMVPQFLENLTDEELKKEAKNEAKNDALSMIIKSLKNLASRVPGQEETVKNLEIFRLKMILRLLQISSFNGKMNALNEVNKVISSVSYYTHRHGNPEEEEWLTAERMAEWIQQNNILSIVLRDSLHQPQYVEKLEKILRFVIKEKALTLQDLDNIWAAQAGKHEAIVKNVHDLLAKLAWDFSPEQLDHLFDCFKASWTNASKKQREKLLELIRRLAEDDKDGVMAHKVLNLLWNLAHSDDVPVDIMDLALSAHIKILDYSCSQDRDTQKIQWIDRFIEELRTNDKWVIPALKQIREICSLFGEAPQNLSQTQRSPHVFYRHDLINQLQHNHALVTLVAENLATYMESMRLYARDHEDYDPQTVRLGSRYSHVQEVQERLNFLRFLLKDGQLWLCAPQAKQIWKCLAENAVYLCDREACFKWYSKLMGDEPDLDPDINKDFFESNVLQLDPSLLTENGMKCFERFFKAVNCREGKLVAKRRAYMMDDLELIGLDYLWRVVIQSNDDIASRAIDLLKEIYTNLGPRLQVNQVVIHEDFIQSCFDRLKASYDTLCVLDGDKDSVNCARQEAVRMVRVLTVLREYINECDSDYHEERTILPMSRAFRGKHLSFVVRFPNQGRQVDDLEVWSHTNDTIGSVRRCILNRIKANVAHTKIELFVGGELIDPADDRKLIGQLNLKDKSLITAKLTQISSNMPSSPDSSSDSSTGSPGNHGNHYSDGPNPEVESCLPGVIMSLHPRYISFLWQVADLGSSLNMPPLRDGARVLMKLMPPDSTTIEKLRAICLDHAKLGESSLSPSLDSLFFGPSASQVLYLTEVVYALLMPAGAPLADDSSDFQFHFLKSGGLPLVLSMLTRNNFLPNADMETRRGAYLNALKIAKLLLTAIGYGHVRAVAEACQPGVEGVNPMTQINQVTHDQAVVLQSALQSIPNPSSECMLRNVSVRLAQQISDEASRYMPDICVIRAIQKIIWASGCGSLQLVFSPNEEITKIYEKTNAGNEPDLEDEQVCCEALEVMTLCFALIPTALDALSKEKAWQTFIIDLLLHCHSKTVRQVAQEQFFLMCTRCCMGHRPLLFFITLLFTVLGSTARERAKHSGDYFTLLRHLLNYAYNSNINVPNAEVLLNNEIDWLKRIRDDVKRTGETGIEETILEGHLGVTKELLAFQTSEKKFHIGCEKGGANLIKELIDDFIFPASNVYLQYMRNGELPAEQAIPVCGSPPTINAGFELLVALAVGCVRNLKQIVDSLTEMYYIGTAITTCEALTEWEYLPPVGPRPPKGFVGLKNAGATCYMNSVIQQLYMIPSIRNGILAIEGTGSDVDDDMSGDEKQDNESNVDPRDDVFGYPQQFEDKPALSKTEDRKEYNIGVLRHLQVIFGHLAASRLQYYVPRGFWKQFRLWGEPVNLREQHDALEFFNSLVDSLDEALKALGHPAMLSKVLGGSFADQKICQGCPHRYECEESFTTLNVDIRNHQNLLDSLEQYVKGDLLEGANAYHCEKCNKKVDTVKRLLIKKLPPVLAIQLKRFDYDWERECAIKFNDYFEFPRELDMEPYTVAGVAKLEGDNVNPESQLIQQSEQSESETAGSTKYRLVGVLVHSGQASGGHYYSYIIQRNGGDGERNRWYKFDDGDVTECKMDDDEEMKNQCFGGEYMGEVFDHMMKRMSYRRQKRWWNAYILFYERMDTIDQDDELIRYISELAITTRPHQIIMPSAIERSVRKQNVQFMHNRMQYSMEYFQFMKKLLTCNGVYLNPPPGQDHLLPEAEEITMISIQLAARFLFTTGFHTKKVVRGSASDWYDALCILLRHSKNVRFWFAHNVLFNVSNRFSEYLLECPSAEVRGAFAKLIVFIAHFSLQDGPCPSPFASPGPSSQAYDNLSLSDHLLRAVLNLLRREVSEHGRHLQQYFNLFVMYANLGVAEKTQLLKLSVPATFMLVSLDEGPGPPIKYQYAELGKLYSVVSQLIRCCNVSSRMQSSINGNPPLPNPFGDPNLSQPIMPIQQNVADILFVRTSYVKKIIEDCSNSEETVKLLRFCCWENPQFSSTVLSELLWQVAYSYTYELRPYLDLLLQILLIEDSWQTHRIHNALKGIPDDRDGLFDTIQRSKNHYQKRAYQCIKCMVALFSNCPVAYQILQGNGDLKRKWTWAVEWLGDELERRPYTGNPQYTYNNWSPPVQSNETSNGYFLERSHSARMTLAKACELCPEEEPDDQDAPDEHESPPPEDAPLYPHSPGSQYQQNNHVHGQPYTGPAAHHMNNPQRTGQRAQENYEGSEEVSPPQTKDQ

SMILES: Oc1ccc2ccccc2c1 [Compound 2-Naphthol, 2-Naphthol]
- cytotoxicity after single dose, 72 h [1]: not cytotoxic

SMILES: CC(C)(C)OC(=O)NCc1ccc(OC(=O)Oc2ccccc2)cc1 [Compound C3]
- DUB inhibitory activity, SAR in words [2]: activity was lost

SMILES: O=C(Oc1ccccc1)Oc1ccc(CNCc2ccc(Cl)cc2)cc1 [Compound C5]
- stabilization of the HMW-Ub pool [2]: inhibited the decomposition of the HMW-Ub pool
- DUB inhibitory activity, SAR in words [2]: retained DUB inhibitory activity

SMILES: NCc1ccc(OC(=O)Nc2ccccc2)cc1 [Compound C7]
- stabilization of the HMW-Ub pool [2]: Neither the analogous carbamates (C7 and C8, FIG. 30 and FIG. 36), nor the analogous esters (C9 and C10) stabilized HMW-Ub

SMILES: NCc1ccc(NC(=O)Oc2ccccc2)cc1 [Compound C8]
- stabilization of the HMW-Ub pool [2]: Neither the analogous carbamates (C7 and C8, FIG. 30 and FIG. 36), nor the analogous esters (C9 and C10) stabilized HMW-Ub

SMILES: NCc1ccc(OC(=O)Cc2ccccc2)cc1 [Compound C9]
- stabilization of the HMW-Ub pool [2]: nor the analogous esters (C9 and C10) stabilized HMW-Ub

SMILES: NCc1ccc(CC(=O)Oc2ccccc2)cc1 [Compound C10]
- stabilization of the HMW-Ub pool [2]: nor the analogous esters (C9 and C10) stabilized HMW-Ub

SMILES: NCc1ccc(OC(=O)Oc2ccc(F)cc2)cc1 [Compound C11, 4-(aminomethyl)phenyl(4-fluorophenyl)carbonate]
- DUB inhibitory activity, SAR in words [2]: had no effect on inhibitory activity

SMILES: Cc1ccc(OC(=O)Oc2ccc(CN)cc2)cc1 [Compound C12, 4-(aminomethyl)phenyl(4-methylphenyl)carbonate]
- DUB inhibitory activity, SAR in words [2]: had no effect on inhibitory activity

SMILES: COc1ccc(OC(=O)Oc2ccc(CN)cc2)cc1 [Compound C13, 4-(aminomethyl)phenyl(4-methoxyphenyl)carbonate]
- DUB inhibitory activity, SAR in words [2]: had no effect on inhibitory activity

SMILES: NCc1ccc(OC(=O)Oc2ccccc2Cl)cc1 [Compound C16, 4-(aminomethyl)phenyl(2-chlorophenol)carbonate]
- DUB inhibitory activity, SAR in words [2]: improved potency relative to C4

SMILES: CC(C)(C)OC(=O)NCc1ccc(OC(=O)Oc2ccc3ccccc3c2)cc1 [Compound C19]
- DUB inhibitory activity, SAR in words [2]: Inhibitory activity was not recovered

SMILES: CC(C)(C)CNCc1ccc(OC(=O)Oc2ccc3ccccc3c2)cc1 [Compound C20]
- accumulation of K48-linked HMW-Ub [3]: failed to cause the accumulation of HMW-Ub
- DUB inhibitory activity, SAR in words [2]: inhibitory activity was retained

SMILES: CC(C)CNCc1ccc(OC(=O)Oc2ccc3ccccc3c2)cc1 [Compound C21]
- DUB inhibitory activity, SAR in words [2]: somewhat deleterious

SMILES: N=C(N)NCc1ccc(OC(=O)Oc2ccc3ccccc3c2)cc1 [Compound C22]
- accumulation of K48-linked HMW-Ub [3]: failed to cause the accumulation of HMW-Ub
- HA-Ub-VS labeling of USPs [4, 9]: decreased HA-Ub-VS labeling of several USPs
- HA-Ub-VS labeling, dose response ([4]; at 12 μM): significantly inhibited the labeling of several high molecular weight proteins
- DUB inhibitory activity, SAR in words [2]: efficacious
- HA-Ub-VS labeling of UCHL enzymes [5, 9]: relatively little effect on the UCHL enzymes
- inhibition of UCH-L1/3/5, dose response ([5]; below 50 μM): little inhibition of UCH-L1/3/5 was observed below 50 μM

SMILES: CC(C)(C)OC(=O)NCc1ccc(OC(=O)Oc2ccc(Cl)cc2)cc1 [Compound C23, N-Boc 4-(aminomethyl)phenyl(4-chlorophenyl)carbonate]
- DUB inhibitory activity, SAR in words [2]: Inhibitory activity was not recovered

SMILES: CC(C)(C)OC(=O)NCc1ccc(NC(=S)Oc2ccccc2)cc1 [TCM23]
- EC50 [6]: > 50 µM

SMILES: CC(C)(C)OC(=O)NCc1ccc(NC(=S)Oc2ccc(Cl)cc2)cc1 [TCM28]
- EC50 [6]: 45 ± 8 µM

SMILES: NCc1ccc(O)cc1 [aminomethylphenol, 4-(aminomethyl)phenol]
- cytotoxicity after single dose, 72 h [7]: not cytotoxic

SMILES: CC(C)CNCc1ccc(OC(=O)Oc2ccc3ccccc3c2)cc1.Cl [compound 10]
- inhibition (total ubiquitin pool) [8]: have some potency

SMILES: CC(C)(C)CNCc1ccc(OC(=O)Oc2ccc3ccccc3c2)cc1.Cl [compound 11]
- inhibition (total ubiquitin pool) [8]: have some potency

SMILES: CC(C)(C)OC(=O)NCc1ccc(OC(=O)Oc2ccc(Cl)cc2)cc1 [compound 16, N-Boc 4-(aminomethyl)phenyl(4-chlorophenyl)carbonate]
- inhibition (total ubiquitin pool) [8]: not an efficient inhibitor

Reference: US20160090351A1, “INHIBITORS OF DEUBIQUITINATING PROTEASES” (BRANDEIS UNIVERSITY, priority 2013, published 2016)
